Read-outs that look alike come from different tables or passages of the source.
Columns and labels:
TMPRSS2 [1] = biological target: T1, TMPRSS2 (Homo sapiens, UniProt O15393); conditions: inhibitor 1665 nM
Experimental: Negative ctrl: no inhibitor, positive ctrl: inhibitor in assay buffer. d Inhibitory constants Ki as determined from (a–c). Shown are the means ± SD of n = 1 experiment performed in triplicates. No inh. no inhibition.
(§1) The activity of the compounds against the recombinant human enzymes was determined in enzyme inhibition assays. […] The measurements were performed on a Tecan infinite® M1000 and the fluorescence intensity was measured by exciting the AMC fluorophore at 380 nm wavelength and recording emission at 460 nm wavelength. […] Fluorescence intensities and absorption were measured every 2 min for 2 h or as endpoint after 2 h. […] To determine the IC50 values, the concentration-response data were plotted with the program GraphPad prism version 8.4.2 (San Diego, California) and a nonlinear regression fit with the equation [Inhibitor] vs. normalized response was applied. The inhibitory constant Ki was calculated from the IC50 values using the Cheng–Prusoff equation (Ki = IC50/[S]/KM) for competitive reversible inhibitors[66].
(§2) The stability of the inhibitors was measured according to a modified procedure from ref. [67]. […] At indicated timepoints, 100 µL samples were taken and mixed with 200 µL of ethanol to precipitate proteins. […] The supernatant was aspirated and analyzed using analytical HPLC. The residual inhibitory constants Ki after incubation was assessed by mixing serial dilutions of the inhibitor with recombinant TMPRSS2 as described above.

TMPRSS2 [2] = biological target: T1, TMPRSS2; type: biochemical; design: purchased Creative BioMart (New York, USA) or LSBio (Seattle, USA); conditions: for TMPRSS2 activity, Mean (Fig. 2a): normalized, 0 nM = 100
Excerpt: Recombinant human TMPRSS2 was purchased from Creative BioMart (New York, USA) or LSBio (Seattle, USA), factor Xa was obtained from Bio-Techne GmbH (Wiesbaden, Germany). Recombinant human thrombin and matriptase protein were purchased from R&D Systems (Minneapolis, MN, USA).

TMPRSS2 [3] = biological target: T1, TMPRSS2; assay: Plasma stability: residual TMPRSS2 inhibition after incubation in human plasma
Experimental: as §1, §2
Shown are the means ± SD of n=1 experiment performed in triplicates.

T1 sequence (O15393 whole entry): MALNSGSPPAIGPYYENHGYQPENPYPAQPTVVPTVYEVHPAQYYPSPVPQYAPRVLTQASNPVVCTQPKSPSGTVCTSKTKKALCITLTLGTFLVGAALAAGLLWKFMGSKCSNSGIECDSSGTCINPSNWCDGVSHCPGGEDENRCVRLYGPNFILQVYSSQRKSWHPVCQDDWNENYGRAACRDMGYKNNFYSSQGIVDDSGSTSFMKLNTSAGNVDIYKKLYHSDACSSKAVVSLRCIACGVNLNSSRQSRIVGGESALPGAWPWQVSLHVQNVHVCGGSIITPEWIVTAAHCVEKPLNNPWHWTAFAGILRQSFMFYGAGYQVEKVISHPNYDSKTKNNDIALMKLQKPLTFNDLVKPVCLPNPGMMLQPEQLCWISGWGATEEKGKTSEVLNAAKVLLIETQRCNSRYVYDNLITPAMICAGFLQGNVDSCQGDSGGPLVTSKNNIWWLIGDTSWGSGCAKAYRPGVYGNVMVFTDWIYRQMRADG

ace-Arg-Pro-Arg-kbt [Compound 2]
TMPRSS2 activity, Mean (0 nM = 100) (TMPRSS2 [1]; 10 d in serum): 12.0706
TMPRSS2 activity, Mean (0 nM = 100) (TMPRSS2 [1]; positive ctrl): 5.8217
TMPRSS2 activity, Mean (Fig. 2a) (TMPRSS2 [2]; 0.05 nM): 92
TMPRSS2 activity, Mean (Fig. 2a) (TMPRSS2 [2]; 0.5 nM): 90.3158
TMPRSS2 activity, Mean (Fig. 2a) (TMPRSS2 [2]; 5 nM): 62.9474
TMPRSS2 activity, Mean (Fig. 2a) (TMPRSS2 [2]; 50 nM): 19.7895
TMPRSS2 activity, Mean (Fig. 2a) (TMPRSS2 [2]; 500 nM): 3.789
TMPRSS2 activity, Mean (Fig. 2a) (TMPRSS2 [2]; 5000 nM): 0.6316
TMPRSS2 activity, Mean (Fig. 2a) (TMPRSS2 [2]; 50000 nM): 0.4211
TMPRSS2 activity, Mean (Fig. 2a) (TMPRSS2 [2]; 500000 nM): -1.895
Ki (TMPRSS2 [2]; 30 min preincubation, substrate Boc-Gln-Ala-Arg-AMC, Ki from IC50 by Cheng–Prusoff): 3.8 nM
fold more active than FOY-251 against isolated TMPRSS2 (TMPRSS2 [2]; ratio of Ki values): 2–3 fold
TMPRSS2 activity, Mean (0 nM = 100) (TMPRSS2 [3]; inhibitor 0.0167 nM, 0 min in plasma): 108.191
TMPRSS2 activity, Mean (0 nM = 100) (TMPRSS2 [3]; inhibitor 0.0167 nM, 30 min in plasma): 105.387
TMPRSS2 activity, Mean (0 nM = 100) (TMPRSS2 [3]; inhibitor 0.0167 nM, 60 min in plasma): 97.3483
TMPRSS2 activity, Mean (0 nM = 100) (TMPRSS2 [3]; inhibitor 0.0167 nM, 120 min in plasma): 100.611
TMPRSS2 activity, Mean (0 nM = 100) (TMPRSS2 [3]; inhibitor 0.0167 nM, 24 h in plasma): 95.898
TMPRSS2 activity, Mean (0 nM = 100) (TMPRSS2 [3]; inhibitor 0.0167 nM, 10 d in plasma): 98.4437
TMPRSS2 activity, Mean (0 nM = 100) (TMPRSS2 [3]; inhibitor 0.0167 nM, positive ctrl): 103.005
TMPRSS2 activity, Mean (0 nM = 100) (TMPRSS2 [3]; inhibitor 0.167 nM, 0 min in plasma): 105.131
TMPRSS2 activity, Mean (0 nM = 100) (TMPRSS2 [3]; inhibitor 0.167 nM, 30 min in plasma): 104.481
TMPRSS2 activity, Mean (0 nM = 100) (TMPRSS2 [3]; inhibitor 0.167 nM, 60 min in plasma): 96.8072
TMPRSS2 activity, Mean (0 nM = 100) (TMPRSS2 [3]; inhibitor 0.167 nM, 120 min in plasma): 98.0518
TMPRSS2 activity, Mean (0 nM = 100) (TMPRSS2 [3]; inhibitor 0.167 nM, 24 h in plasma): 93.482
TMPRSS2 activity, Mean (0 nM = 100) (TMPRSS2 [3]; inhibitor 0.167 nM, 10 d in plasma): 101.036
TMPRSS2 activity, Mean (0 nM = 100) (TMPRSS2 [3]; inhibitor 0.167 nM, positive ctrl): 100.219
TMPRSS2 activity, Mean (0 nM = 100) (TMPRSS2 [3]; inhibitor 1.665 nM, 0 min in plasma): 102.769
TMPRSS2 activity, Mean (0 nM = 100) (TMPRSS2 [3]; inhibitor 1.665 nM, 30 min in plasma): 100.449
TMPRSS2 activity, Mean (0 nM = 100) (TMPRSS2 [3]; inhibitor 1.665 nM, 60 min in plasma): 96.1849
TMPRSS2 activity, Mean (0 nM = 100) (TMPRSS2 [3]; inhibitor 1.665 nM, 120 min in plasma): 100.213
TMPRSS2 activity, Mean (0 nM = 100) (TMPRSS2 [3]; inhibitor 1.665 nM, 24 h in plasma): 98.9115
TMPRSS2 activity, Mean (0 nM = 100) (TMPRSS2 [3]; inhibitor 1.665 nM, 10 d in plasma): 97.0442
TMPRSS2 activity, Mean (0 nM = 100) (TMPRSS2 [3]; inhibitor 1.665 nM, positive ctrl): 88.8492
TMPRSS2 activity, Mean (0 nM = 100) (TMPRSS2 [3]; inhibitor 16.65 nM, 0 min in plasma): 86.0968
TMPRSS2 activity, Mean (0 nM = 100) (TMPRSS2 [3]; inhibitor 16.65 nM, 30 min in plasma): 100.379
TMPRSS2 activity, Mean (0 nM = 100) (TMPRSS2 [3]; inhibitor 16.65 nM, 60 min in plasma): 78.8625
TMPRSS2 activity, Mean (0 nM = 100) (TMPRSS2 [3]; inhibitor 16.65 nM, 120 min in plasma): 82.8569
TMPRSS2 activity, Mean (0 nM = 100) (TMPRSS2 [3]; inhibitor 16.65 nM, 24 h in plasma): 83.5789
TMPRSS2 activity, Mean (0 nM = 100) (TMPRSS2 [3]; inhibitor 16.65 nM, 10 d in plasma): 88.0057
TMPRSS2 activity, Mean (0 nM = 100) (TMPRSS2 [3]; inhibitor 16.65 nM, positive ctrl): 53.0338
TMPRSS2 activity, Mean (0 nM = 100) (TMPRSS2 [3]; inhibitor 166.5 nM, 0 min in plasma): 23.84
TMPRSS2 activity, Mean (0 nM = 100) (TMPRSS2 [3]; inhibitor 166.5 nM, 30 min in plasma): 25.2709
TMPRSS2 activity, Mean (0 nM = 100) (TMPRSS2 [3]; inhibitor 166.5 nM, 60 min in plasma): 26.798
TMPRSS2 activity, Mean (0 nM = 100) (TMPRSS2 [3]; inhibitor 166.5 nM, 120 min in plasma): 22.618
TMPRSS2 activity, Mean (0 nM = 100) (TMPRSS2 [3]; inhibitor 166.5 nM, 24 h in plasma): 21.6315
TMPRSS2 activity, Mean (0 nM = 100) (TMPRSS2 [3]; inhibitor 166.5 nM, 10 d in plasma): 39.6688
TMPRSS2 activity, Mean (0 nM = 100) (TMPRSS2 [3]; inhibitor 166.5 nM, positive ctrl): 13.9877
TMPRSS2 activity, Mean (0 nM = 100) (TMPRSS2 [3]; inhibitor 1665 nM, 0 min in plasma): 0.5738
TMPRSS2 activity, Mean (0 nM = 100) (TMPRSS2 [3]; inhibitor 1665 nM, 30 min in plasma): 7.5387
TMPRSS2 activity, Mean (0 nM = 100) (TMPRSS2 [3]; inhibitor 1665 nM, 60 min in plasma): 0.2056
TMPRSS2 activity, Mean (0 nM = 100) (TMPRSS2 [3]; inhibitor 1665 nM, 120 min in plasma): 7.6223
TMPRSS2 activity, Mean (0 nM = 100) (TMPRSS2 [3]; inhibitor 1665 nM, 24 h in plasma): 2.774
TMPRSS2 activity, Mean (0 nM = 100) (TMPRSS2 [3]; inhibitor 1665 nM, 10 d in plasma): 10.1282
TMPRSS2 activity, Mean (0 nM = 100) (TMPRSS2 [3]; inhibitor 1665 nM, positive ctrl): 12.6313
